Experimental data taken from PMC6753678, “Fueling Open Innovation for Malaria Transmission-Blocking Drugs: Hundreds of Molecules Targeting Early Parasite Mosquito Stages” (Frontiers in Microbiology, 2019).
Where two headings read alike, the source gives them in different places.

Assays:
[1] = system: P. falciparum female gametocytes; parameters: method as in Miguel-Blanco et al 2017; conditions: TCAMS library screen; ref Miguel-Blanco et al 2017; read-out: Pf FGAA IC50; cited from earlier work
HepG2 cells = conditions: cited from earlier work
[2] = system: P. falciparum female gametocytes; experiment: P. falciparum female gametogenesis assay (Pf FGAA); conditions: 1: YES; 0: NO
[3] = HepG2 value reported with Pf FGAA screen, ref Miguel-Blanco et al 2017

SMILES	IC50 [1]	HepG2 cytoxicity (Pf FGAA screen) (HepG2 cells; [3])	Is compound selective in assay? Pf FGAA active? [2]	HepG2 cytoxicity (Pf FGAA screen) (HepG2 cells)
Oc1c(C(Nc2ccccn2)c2ccc(Cl)cc2Cl)ccc2cccnc12 (stereo not drawn) [TCMDC-125559]	1.14 µM	12.74 µM	1 (1: YES)	
O=C(Nc1cc(C(F)(F)F)cc(C(F)(F)F)c1)Nc1ccc(Cl)c(Cl)c1 [TCMDC-125592]	1.43 µM	3.07 µM	0 (0: NO)	
ON=C(c1nc2ccccc2[nH]1)c1nc2ccccc2[nH]1 [TCMDC-125758]	0.33 µM	4.96 µM	1 (1: YES)	
c1ccc(-c2nc(NC3CCCCC3)cc(C3CC3)n2)nc1 [TCMDC-125825]	0.16 µM	48.99 µM	1 (1: YES)	
CC(C)(C)c1cc(NC2CC2)nc(-c2ccccn2)n1 [TCMDC-125826]	0.12 µM	>100 µM	1 (1: YES)	
CCN(CCNS(C)(=O)=O)c1ccc(N)c(C)c1.O.O=S(=O)(O)O [TCMDC-125836]	1.14 µM	26.14 µM	1 (1: YES)	
Br.Oc1ccc(CCNCCCCCCNCCc2ccc(-c3ccccc3)cc2)cc1O [TCMDC-131268]	10.9 µM	13.18 µM	0 (0: NO)	
Br.CC(C)(Cc1ccc(Cl)cc1)NCCCCCCNCCc1ccc(O)c(O)c1 [TCMDC-131277]	9.66 µM	10.97 µM	0 (0: NO)	
C[C@H](Cc1ccc(OCCCCCCOc2ccc(C[C@@H](C)N[C@H](C)c3ccccc3)cc2)cc1)NC[C@H](O)c1cccc(Cl)c1.Cl [TCMDC-131564]	0.72 µM	4.28 µM	0 (0: NO)	
Br.CCc1c(CCNCCCCCCNCCc2ccc(Br)cc2)ccc(O)c1O [TCMDC-132044]	1.3 µM	7.96 µM	0 (0: NO)	
Cc1c2ccncc2c(C)c2c1[nH]c1cc(Cc3ccccc3)c(O)cc12 [TCMDC-132053]	1.09 µM	1.23 µM	0 (0: NO)	
CCc1c(CCNC/C=C/C=C/CNCCc2ccc(OC)c(OC)c2CC)ccc(OC)c1OC.Cl [TCMDC-132061]	2.56 µM	4.68 µM	0 (0: NO)	
CCc1c(CCNCCCCCNCCc2ccc(OC)c(OC)c2CC)ccc(OC)c1OC.Cl [TCMDC-132064]	2.05 µM	4.68 µM	0 (0: NO)	
CCc1c(CCNCCCCCCNCCc2ccc3c(c2C)OCO3)ccc2c1OCO2.Cl [TCMDC-132093]	1.02 µM	3.89 µM	0 (0: NO)	
Cl.N#Cc1c(F)cc(N2CCC(NCC[C@H](N)Cc3ccc(F)c(F)c3)CC2)cc1F [TCMDC-132121]	0.73 µM		0 (0: NO)	4.58 µM
CN(C)Cc1cccc2nc(-c3csc(Cc4cc(Cl)ccc4OCc4ccccc4)n3)[nH]c12 [TCMDC-132174]	2.1 µM	13.04 µM	0 (0: NO)	
O=C(O)C(F)(F)F.O=S(=O)(NCCN1CCCC1)c1ccc(-c2cccc(CNC3Cc4ccccc4C3)c2)cc1 [TCMDC-132215]	2.54 µM	6.03 µM	0 (0: NO)	
O=C(O)C(F)(F)F.O=S(=O)(NCCN1CCCC1)c1ccc(-c2cccc(CNC3Cc4ccccc4C3)c2)s1 [TCMDC-132217]	1.29 µM	5.50 µM	0 (0: NO)	
CN1CCC(NCc2cccc(-c3ccc(S(=O)(=O)NCc4ccccc4)c(F)c3)c2)CC1.O=C(O)C(F)(F)F [TCMDC-132219]	2.63 µM	5.13 µM	0 (0: NO)	
O=C(O)C(F)(F)F.O=S(=O)(NCCN1CCCC1)c1ccc(-c2ccc(CNC3Cc4ccccc4C3)cc2)s1 [TCMDC-132234]	2.27 µM	5.83 µM	0 (0: NO)	
Cc1cc(-c2ccc(CNC3Cc4ccccc4C3)cc2)ccc1S(=O)(=O)NCCN1CCCC1.O=C(O)C(F)(F)F [TCMDC-132243]	1.83 µM	5.31 µM	0 (0: NO)	
COc1ccc(CNC2CCN(C)CC2)cc1-c1ccc(S(=O)(=O)NCc2ccccc2)s1.O=C(O)C(F)(F)F [TCMDC-132253]	1.75 µM	5.50 µM	0 (0: NO)	
COc1ccc(CNC2Cc3ccccc3C2)cc1-c1ccc(S(=O)(=O)NCCN2CCCC2)s1.O=C(O)C(F)(F)F [TCMDC-132258]	1.39 µM	5.31 µM	0 (0: NO)	
